Test results reported in patent US20050220907A1, “Implanted medical devices with anti-inflammatory coatings” (priority 2004, published 2005).

How the values were obtained:
[1] = commercially available preparations, oral; cited from earlier work
[2] = Effect of olive kernel extract on absorption of tritiated chondroitin sulfate in vivo (serum radioactivity after oral capsule); design: species or system male Sprague-Dawley rats; details: serum radioactivity at 8 hours
Procedure: Chondroitin sulfate was tritiated by New England Nuclear Corp. to a specific activity of 4.3 mCi/ml.
Unlabeled chondroitin sulfate was dissolved in olive kernel extract at a ratio of about 55 w/v chondroitin sulfate powder to about 450 w/v of olive kernel extract (2.9% acidity as oleic acid, 1.03% water, 0.08% hexane). To this solution was added 20.2 microcuries of the labeled chondroitin sulfate. AAA gelatin capsules were filled with the resulting solution using an aluminum template molding device.
The laboratory animals (250 g male Sprague-Dawley rats) were kept overnight without food but with free access to water. One capsule containg the above-described chondroitin sulfate-olive kernel extract solution was given to each rat per os. Control animals were given the equivalent amount of chondroitin, but without olive kernel extract. The animals were then given free access to food. Serum radioactivity was measured 8 hours thereafter in a beta scintillation counter.

[3] = Chondroitin sulfate solubility in oils; format: physicochemical; details: in codfish oil, corn oil and olive oil (from the flesh of the olive)
From the text: Parallel experiments with codfish oil, corn oil and olive oil (from the flesh of the olive) were comtemplated, but chondroitin sulfate solubility in these oils was insufficient to meet the requirements of the experiment.

dose of labeled chondroitin sulfate that reached the circulation ([2]; control rats, one capsule per os without olive kernel extract, n=3): about 3.9%+/−0.4% | dose of labeled chondroitin sulfate absorbed into the general circulation ([2]; rats, one capsule per os of chondroitin sulfate dissolved in olive kernel extract, n=4): about 14.3%+/−0.7% | chondroitin sulfate solubility in oils [3]: insufficient
Substance: chondroitin sulfate
chondroitin sulfate absorbed orally [1]: less than 5%
